Experimental data: PubChem BioAssay AID504458 (NMMLSC, 2011)
pEC50: −log10 of the molar value. Active and inactive are the calls of the source. No rule for the calls is given here.

molecular target: General amino acid permease AGP1 (Saccharomyces cerevisiae (strain ATCC 204508 / S288c)) (UniProt P25376); assay: compound effects on AGP1 permease GFP reporter – TOR pathway, S. cerevisiae, flow cytometry, KU SAR set 2, multiplex, dose response (AID 504458); settings: flow cytometry fluorescence, 3 h
Sequence (P25376 whole entry, looked up): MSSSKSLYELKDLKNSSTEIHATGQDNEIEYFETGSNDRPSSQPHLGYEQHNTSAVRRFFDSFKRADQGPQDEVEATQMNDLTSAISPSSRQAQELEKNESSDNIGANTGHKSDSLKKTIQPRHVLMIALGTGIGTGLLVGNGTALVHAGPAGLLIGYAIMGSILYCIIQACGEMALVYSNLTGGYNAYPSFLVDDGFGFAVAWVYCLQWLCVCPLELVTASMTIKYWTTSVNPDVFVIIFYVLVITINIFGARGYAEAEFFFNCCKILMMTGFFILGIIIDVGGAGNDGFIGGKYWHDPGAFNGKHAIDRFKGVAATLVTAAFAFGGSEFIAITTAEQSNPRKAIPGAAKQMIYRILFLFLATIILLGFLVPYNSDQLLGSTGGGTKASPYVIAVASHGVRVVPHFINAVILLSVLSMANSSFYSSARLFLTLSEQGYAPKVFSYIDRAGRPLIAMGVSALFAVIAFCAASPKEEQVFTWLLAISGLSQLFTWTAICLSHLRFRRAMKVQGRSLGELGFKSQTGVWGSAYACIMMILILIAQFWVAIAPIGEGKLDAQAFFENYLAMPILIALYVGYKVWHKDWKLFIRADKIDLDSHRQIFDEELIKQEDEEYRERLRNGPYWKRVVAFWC

Row | SMILES | EC50 | pEC50
1 | Cc1cc(Nc2cc(Nc3ccccc3)nc(NCc3ccccc3)n2)n[nH]1 | inactive | –
2 | COC(=O)c1cccc(-c2cc(Nc3cc(C)[nH]n3)nc(NCc3ccccc3)n2)c1 | inactive | –
3 | COc1ccccc1-c1cc(Nc2cc(C)[nH]n2)nc(NCc2ccccc2)n1 | inactive | –
4 | Cc1cc(Nc2cc(-c3ccccc3)nc(NCc3ccccc3)n2)n[nH]1 | inactive | –
5 | CCNc1nc(NC2CCCCC2)c([N+](=O)[O-])c(N2CCOCC2)n1 | inactive | –
6 | O=[N+]([O-])c1c(NC2CCCCC2)nc(NCc2ccccc2)nc1N1CCOCC1 | inactive | –

The remaining lines, values ahead:

Row | EC50 | pEC50 | SMILES
7 | inactive | – | CNc1nc(N)cc(Nc2ccccc2F)n1
8 | inactive | – | CNc1nc(N)cc(Oc2cccc(Cl)c2)n1
9 | – | 5.01 | CCNc1nc(N)c([N+](=O)[O-])c(Nc2cccc(Cl)c2)n1
10 | inactive | – | CCOC(=O)c1c(N)nc(NC)nc1Nc1cccc(F)c1
11 | inactive | – | CNc1nc(N)c([N+](=O)[O-])c(Nc2cccc(Oc3ccccc3)c2)n1
12 | inactive | – | CNc1nc(N)c(C(=O)c2ccc(C)c(C)c2)c(Nc2cccc(Cl)c2)n1
13 | inactive | – | CNc1nc(NC)c([N+](=O)[O-])c(Nc2cccc(Cl)c2)n1
14 | inactive | – | CNc1nc(N)cc(Nc2cccc(Cl)c2)n1
15 | inactive | – | CNc1nc(N)c([N+](=O)[O-])c(Nc2ccccc2Br)n1
